# Test results reported in patent EP4523686A1, “A SIGMA-1 RECEPTOR POSITIVE MODULATOR FOR ITS USE IN THE PREVENTION AND THE TREATMENT OF A PATHOLOGY” (priority 2023, dated 2025).
# Molecular target: T1, 5-HT1B receptor (Homo sapiens, UniProt P28222)
# T1 construct: CEREP
# Assay: CEREP in vitro binding assay (pharmacological profiling)
# T1 sequence (P28222 whole entry): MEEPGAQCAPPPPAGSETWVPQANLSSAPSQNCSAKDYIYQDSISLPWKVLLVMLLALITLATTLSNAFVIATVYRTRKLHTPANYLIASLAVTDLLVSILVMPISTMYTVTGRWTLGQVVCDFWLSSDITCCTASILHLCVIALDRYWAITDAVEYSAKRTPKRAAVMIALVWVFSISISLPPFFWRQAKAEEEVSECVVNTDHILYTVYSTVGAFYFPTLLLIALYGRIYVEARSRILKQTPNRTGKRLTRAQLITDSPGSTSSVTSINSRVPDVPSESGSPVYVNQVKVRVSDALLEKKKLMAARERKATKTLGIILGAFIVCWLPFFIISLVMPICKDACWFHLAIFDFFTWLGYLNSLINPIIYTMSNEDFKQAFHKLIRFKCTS
structure (smiles),measurement,setting,value
"COc1ccc(C(=O)OC2CC3CCC(C2)N3C)cc1OC (stereo not drawn) [Convolamine, (8-methyl-8-azabicyclo[3.2.1]octan-3-yl) 3,4-dimethoxybenzoate]",stimulation of specific binding,,30-40%
same,inhibition at 0.1 µM,"0.1 µM, duplicates, negative = stimulation of binding",-33%
same,inhibition at 1 µM,"1 µM, duplicates, negative = stimulation of binding",-38.6%
